Experimental data as given in US9339032B2, “Heterocyclic compounds as pesticides” (Bayer Intellectual Property GmbH, priority 2010, dated 2016).
Like-named read-outs stand apart in the source and are kept apart here.

Key:
[1] = test system: green peach aphid (Myzus persicae); assay: Myzus test (spray treatment); assay type: in vivo; conditions: 500 g/ha, spray on Chinese cabbage leaf discs, after 6 days; 100% = all aphids killed
Protocol: Myzus Test (Spray Treatment) Solvent: 78 parts by weight of acetone • • 1.5 parts by weight of dimethylformamide Emulsifier: 0.5 part by weight of alkylaryl polyglycol ether To prepare an appropriate active ingredient preparation, 1 part by weight of active ingredient is mixed with the stated amounts of solvent and emulsifier, and the concentrate is diluted with emulsifier-containing water to the desired concentration. Discs of Chinese cabbage (Brassica pekinensis) infested by all stages of the green peach aphid (Myzus persicae) are sprayed with an active ingredient preparation of the desired concentration. After 6 days, the efficacy in % is determined. 100% means that all of the aphids have been killed; 0% means that none of the aphids have been killed.

[2] = Determination of the log P values (formic acid method) by reverse-phase HPLC; assay type: physicochemical; conditions: reverse-phase HPLC column (C 18), reverse-phase column (C 18), acidic range (pH 3.4), 55° C.
Protocol: 1) Description of Method for Determination of the log P Values (Formic Acid Method)
The log P values given in the table were determined in accordance with EEC Directive 79/831 Annex V.A8 by HPLC (High Performance Liquid Chromatography) using a reverse-phase column (C 18). Temperature: 55° C.
Eluents for determination in the acidic range (pH 3.4):
Eluent A: acetonitrile+1 ml of formic acid/liter. Eluent B: water+0.9 ml of formic acid/liter.
Gradient: from 10% eluent A/90% eluent B to 95% eluent A/5% eluent B in 4.25 min.
The calibration was effected with unbranched alkan-2-ones (having 3 to 16 carbon atoms) with known log P values (log P values determined on the basis of the retention times by linear interpolation between two successive alkanones). The lambda max values were determined in the maxima of the chromatographic signals using the UV spectra from 200 nm to 400 nm.

[3] = test system: Boophilus microplus; assay: Boophilus microplus test (injection); assay type: in vivo; conditions: 20 μg/animal, injection into the abdomen, after 7 days; 100% = none of the ticks has laid fertile eggs
Protocol: The NMR spectra were • a) determined with a Bruker Avance 400 fitted with a flow probe head (volume 60 μl). The solvent used was CD3CN or d6-DMSO, with tetramethylsilane (0.00 ppm) used as a reference. • b) determined with a Bruker Avance II 600. The solvent used was CD3CN or d6-DMSO, with tetramethylsilane (0.00 ppm) used as a reference. The splitting of the signals was described as follows: s (singlet), d (doublet), t (triplet), q (quartet), quin (quintet), m (multiplet). Boophilus Microplus Test (Injection)
Solvent: dimethyl sulphoxide
To prepare an appropriate active ingredient formulation, 10 mg of active ingredient are mixed with 0.5 ml of solvent and the concentrate is diluted with solvent to the desired concentration. The active ingredient solution is injected into the abdomen (Boophilus microplus), and the animals are transferred into dishes and stored in a climate-controlled room. The activity is assessed by laying of fertile eggs.
After 7 days, the efficacy in % is determined. 100% means that none of the ticks has laid any fertile eggs.

Row | chromatographic logP ([2]; table, read-out: logP (HCOOH)) | SMILES | efficacy in % (aphids killed) [1] [%] | also measured
1 | – | Cc1nc(-c2cccnc2)sc1NC(=O)CC(F)(F)F [Compound 1, 3,3,3-Trifluoro-N-[4-methyl-2-(pyridin-3-yl)-1,3-thiazol-5-yl]propanamide] | 80 | chromatographic logP ([2]; read-out: log P (HCOOH)): 1.47; efficacy in % (laying of fertile eggs) [3]: 100%
2 | – | Cc1nc(-c2cccnc2)sc1NC(=O)Cc1ncccn1 [Compound 2, N-[4-Methyl-2-(pyridin-3-yl)-1,3-thiazol-5-yl]-2-(pyrimidin-2-yl)acetamide] | 100 | chromatographic logP ([2]; read-out: log P (HCOOH)): 0.74
3 | – | Cc1nc(-c2cccnc2)sc1S(=O)(=O)N(C)C [Compound 3] | 100 | chromatographic logP ([2]; read-out: log P (HCOOH)): 1.86
4 | – | CN(C)S(=O)(=O)NC(=O)c1cnn(-c2cccnc2)c1 [Compound 4, N-(Dimethylsulphamoyl)-1-(pyridin-3-yl)-1H-pyrazole-4-carboxamide] | 90 | chromatographic logP ([2]; read-out: log P (HCOOH)): 1.03
5 | – | O=S(=O)(Nc1cnn(-c2cccnc2)c1)C(F)F [Compound 5, 1,1-Difluoro-N-[1-(pyridin-3-yl)-1H-pyrazol-4-yl]methanesulphonamide] | – | chromatographic logP ([2]; read-out: log P (HCOOH)): 1.01
6 | 1.71 | Cc1nn(-c2cccnc2)cc1C(=O)NS(=O)(=O)c1ccccc1 [Compound 6] | 100 | –
7 | 1.42 | CN(C)S(=O)(=O)NC(=O)c1cnn(-c2cncc(F)c2)c1 [Compound 7] | 100 | –
8 | 1.28 | O=C(NS(=O)(=O)C1CC1)c1cnn(-c2cncc(F)c2)c1 [Compound 8] | 90 | –
9 | 1.39 | O=C(NS(=O)(=O)c1ccccc1)c1cnn(-c2cccnc2)c1 [Compound 9] | – | –
10 | 1.35 | Cc1nc(-c2cccnc2)sc1S(=O)(=O)NCc1ncccn1 [Compound 10] | – | –
11 | 0.83 | O=C(NS(=O)(=O)C1CC1)c1cnn(-c2cccnc2)c1 [Compound 11] | – | –
12 | 0.54 | Cc1nc(-c2cccnc2)sc1C(=O)NS(C)(=O)=O [Compound 12] | – | –
13 | 0.81 | Cc1nn(-c2cccnc2)cc1C(=O)NS(C)(=O)=O [Compound 13] | – | –
14 | 1.51 | COCCNS(=O)(=O)c1sc(-c2cccnc2)nc1C [Compound 14] | – | –
15 | 0.67 | O=C(NS(=O)(=O)C(F)(F)F)c1cnn(-c2cccnc2)c1 [Compound 15] | – | –
16 | 0.41 | CS(=O)(=O)NC(=O)c1cnn(-c2cccnc2)c1 [Compound 16] | – | –
17 | 1.81 | O=C(NS(=O)(=O)c1ccccc1)c1cnn(-c2cncc(F)c2)c1 [Compound 17] | – | –
18 | 0.9 | CS(=O)(=O)NC(=O)c1cnn(-c2cncc(F)c2)c1 [Compound 18] | – | –
19 | 0.69 | CCS(=O)(=O)NC(=O)c1cnn(-c2cccnc2)c1 [Compound 19] | – | –
20 | 1.08 | Cc1nc(-c2cncc(F)c2)sc1C(=O)NS(C)(=O)=O [Compound 20] | – | –
21 | 1.24 | CCS(=O)(=O)NC(=O)c1cnn(-c2cncc(F)c2)c1 [Compound 21] | – | –
22 | – | CCOC(=O)c1cnn(-c2cccnc2)c1 [Ethyl 1-(pyridin-3-yl)-1H-pyrazole-4-carboxylate] | – | chromatographic logP ([2]; read-out: log P (HCOOH)): 1.55
